Assay results taken from patent US8491897B2, “Treatment of neuropathic pain using anti-thrombospondin antibodies” (The Board of Trustees of the Leland Stanford Junior …, priority 2007, dated 2013).
“Also recorded” adds a separate entry of the source.

Tests used:
RGCs [1] = experiment: Inhibition of TSP-, astrocyte/ACM- or Hevin-induced synapse formation in RGC cultures; assay type: cell-based, rat
Protocol: RGCs were purified by sequential immunopanning to greater than 99.5% purity from P5 Sprague-Dawley rats (Simonsen Labs, Gilroy, Calif.), as previously described (Barres et. al. (1988) Neuron 9, 791). Approximately 30,000 RGCs were cultured per well in 24-well plates (Falcon) on glass (Assistant) or Aclar 22C (Allied Signal) coverslips coated with poly-D-lysine (10 μg/ml) followed by laminin (2 μg/ml). RGCs were cultured in 600 μl of serum-free medium, modified from Bottenstein and Sato (1979), containing Neurobasal (Gibco), bovine serum albumin, selenium, putrescine, triiodo-thyronine, transferrin, progesterone, pyruvate (1 mM), glutamine (2 mM), CNTF (10 ng/ml), BDNF (50 ng/ml), insulin (5 μg/ml), and forskolin (10 μM). Recombinant human BDNF and CNTF were generously provided by Regeneron Pharmaceuticals.
Purified human platelet TSP1 was from either Sigma or Haematologic Technologies with similar results. Recombinant TSP2 was purified from serum-free medium conditioned by baculovirus-infected insect cells expressing mouse TSP2. Since purified TSP1 is readily available, we used this as the source of TSP in our experiments unless otherwise stated TSPs were used at a concentration of 5 μg/ml unless otherwise specified. RCGs were cultured for 4 days to allow robust process outgrowth and then cultured with TSPs for an additional 6 days. All other reagents were obtained from Sigma.
For preparation of ACM, confluent cultures of astrocytes in 10 cm dishes were washed 3× in PBS and fed with 10 mls RGC medium (without CNTF, BDNF or forskolin). ACM was harvested after 4-6 days of conditioning, filtered through a 0.2 μm syringe filter and concentrated 10× through a 5 KD molecular weight cut-off centrifuge concentrator (Millipore), unless otherwise indicated. ACM was used at a final concentration of 5× unless otherwise indicated. RCGs were cultured for 4 days to allow robust process outgrowth and then cultured with ACM or an astrocyte-feeding layer for an additional 6 days.
For synapse quantification, cultures were fixed for 7 min in 4% paraformaldehyde (PFA), washed 3× in phosphate buffered saline (PBS) and blocked in 100 μL of blocking buffer (50% Antibody Buffer (0.5% bovine serum albumin, 0.5% Triton X-100, 30 mM NaPO4, 750 mM NaCl, 5% normal goat serum, and 0.4% NaN3, pH 7.4), 50% goat serum (NGS), 0.1% Triton-X) for 30 min. After blocking, cover slips were washed 3× in PBS and 100 μL of primary antibody solution was added to each cover slip, consisting of rabbit anti-synaptotagmin (cytosolic domain, Synaptic Systems) and mouse anti-PSD-95 (6G6-1C9 clone, Affinity Bio Reagents) diluted 1:500 in antibody buffer. Coverslips were incubated overnight at 4° C., washed 3× in PBS, and incubated with 100 μL of secondary antibody solution containing Alexa-594 conjugated goat anti-rabbit and Alexa-488 conjugated goat anti-mouse (Molecular Probes) diluted 1:1000 in antibody buffer. Following incubation for 2 h at room temperature, coverslips were washed five times in PBS and mounted in Vectashield mounting medium with DAPI (Vector Laboratories Inc) on glass slides (VWR Scientific). For presynaptic activity assay, rabbit synaptotagmin antiserum was generated by immunization with a peptide corresponding to the N-terminal luminal portion of synaptotagmin. This serum was added at 1:500 to live cultures and incubated for 6 hours. Cells were then washed 3× in DPSB, fixed and stained as above, except for the omission of synaptotagmin antibody from the primary antibody solution.
Mounted coverslips were imaged using Nikon Diaphot and Eclipse epifluorescence microscopes (Nikon). Healthy cells that were at least 2 cell diameters from their nearest neighbor were identified and selected at random by eye using DAPI fluorescence. 8-bit digital images of the fluorescence emission at both 594 nm and 488 nm were recorded for each selected cell using a cooled monochrome CCD camera and SPOT image capture software (Diagnostic Instruments, Inc). […]

RGCs [2] = system: RGCs
[3] = Weight gain and general health of injected pups; assay type: in vivo, mice; conditions: 400 mg/kg daily or 200 mg/kg three times a day i.p., vs saline
Protocol: In three independent experiments, two litters of wild type mice (n=3×12, FVB background) were given daily intraperitoneal injections of either a single dose of 400 mg/kg of GBP (Sigma-Aldrich) or a matching volume of saline solution (PBS). In one experiment the mice were injected with 200 mg/kg GBP (n=6) three times a day and the controls received the same volume of saline solution (n=6). […] Samples were blinded during analysis of the barrel cortex plasticity.

RGCs [4] = experiment: RGC neurite outgrowth; conditions: data not shown

NCC1(CC(=O)O)CCCCC1 [Gabapentin, 1-(aminomethyl)cyclohexaneacetic acid]
effect on SD2-induced synapse formation (RGCs [1]): completely inhibited synapse formation; also recorded: inhibited TSP induced synapse formation; also recorded: blocks TSPs synaptogenic effect; also recorded: blocks the synaptogenic activity of SD2 | effect on SD2-induced synapses (RGCs [1]): synapse formation was not affected; also recorded: does not decrease synapse numbers | effect on already formed synapses (synapse number) (RGCs [1]): did not decreased the synapse number | effect on synapse formation induced by Hevin (RGCs [1]): does not inhibit the synapse formation; also recorded: did not affect | effect on synaptogenic effect of TSP2 EGF-like domains (RGCs [1]): diminished its synaptogenic effect | effect on TSP and astrocyte-induced synapse formation (RGCs [1]; 32 μM): strongly inhibited both TSP and astrocyte-induced synapse formation | effect on synapse formation induced by TSP1 or TSP2 EGF-like domains (RGCs [1]; 32 μM): blocked the synaptogenic effect; also recorded: reduces the number of synapses formed by RGCs down to background levels | effect on synaptogenic effect of astrocyte conditioned media (ACM) (RGCs [1]; 32 μM): diminished the synaptogenic effect of both rat and mouse ACM; also recorded: able to block all of ACMs synaptogenic activity | toxicity to the RGCs (RGCs [2]): not toxic | weight gain and general health [3]: showed no differences | neurite outgrowth (RGCs [4]): did not affect neurite outgrowth
